For 15 compounds, minimal effective concentration results are on record in US20260365642A1, “ANTIPARASITIC COMPOUNDS” (Animol Discovery, Inc., priority 2023, published 2026).

Molecules are shown by their SMILES.

The subject of the assay is Dirofilaria immitis L1 larvae. In words: Screening against microfilaria (L1 larvae) of Dirofilaria immitis, survival/motility. It is filed as in vivo. Conditions: 72 h, read-out: Ranked D. immitis L1 MED Activity. Here is the method: Example 44. Screening of Compounds Against Microfilaria of Dirofilaria immitis
To evaluate the efficacy of compounds of the disclosure against Dirofilaria immitis, L1 stage larvae were exposed to various concentrations of the compounds to determine survival or paralysis of the larvae. Results are reported as the minimum effective dose (MED), defined as the concentration required to eliminate motility.
To perform the assay, microfilaria of Dirofilaria immitis were added to the wells of a microtiter plate containing buffer and the test compounds in DMSO. Microfilaria exposed to DMSO alone served as controls. An assessment was conducted at 72 hours to determine survival of the microfilaria.
On to `CN(CC1CN(S(C)(=O)=O)CCS1)c1cc(N2CCSC3(CCCCC3)C2)nc(C(F)(F)F)n1` (stereo not drawn) [Compound 30, N-methyl-N-((4-(methylsulfonyl)thiomorpholin-2-yl)methyl)-6-(1-thia-4-azaspiro[5.5]undecan-4-yl)-2-(trifluoromethyl)pyrimidin-4-amine], for which the minimal effective concentration is under 10000 µM.

Turning to `CN(CC1CN(S(C)(=O)=O)CCCO1)c1cc(N2CCOC3(CCCCC3)C2)nc(C(F)(F)F)n1` (stereo not drawn) [Compound 31, N-methyl-N-((4-(methylsulfonyl)-1,4-oxazepan-2-yl)methyl)-6-(1-oxa-4-azaspiro[5.5]undecan-4-yl)-2-(trifluoromethyl)pyrimidin-4-amine], the minimal effective concentration was under 30000 µM.

Turning to `CN(CC1CN(S(=O)(=O)C2CC2)CCO1)c1cc(N2CCOC3(CCCCC3)C2)nc(C(F)(F)F)n1` (stereo not drawn) [Compound 32, N-((4-(cyclopropylsulfonyl)morpholin-2-yl)methyl)-N-methyl-6-(1-oxa-4-azaspiro[5.5]undecan-4-yl)-2-(trifluoromethyl)pyrimidin-4-amine], the minimal effective concentration is under 10000 µM.

With `CCS(=O)(=O)N1CCOC(CN(C)c2cc(N3CCOC4(CCCCC4)C3)nc(C(F)(F)F)n2)C1` (stereo not drawn) [Compound 33, N-((4-(ethylsulfonyl)morpholin-2-yl)methyl)-N-methyl-6-(1-oxa-4-azaspiro[5.5]undecan-4-yl)-2-(trifluoromethyl)pyrimidin-4-amine], the minimal effective concentration was under 10000 µM.

As to `CS(=O)(=O)N1CCOC2CN(c3cc(N4CCOC5(CCCCC5)C4)nc(C(F)(F)F)n3)CCC21` (stereo not drawn) [Compound 34, 4-(6-(1-(methylsulfonyl)octahydro-6H-pyrido[3,4-b][1,4]oxazin-6-yl)-2-(trifluoromethyl)pyrimidin-4-yl)-1-oxa-4-azaspiro[5.5]undecane], the minimal effective concentration is under 30000 µM.

In the case of `CN(CC1CN(S(C)(=O)=O)CCCO1)c1cc(N2CCCC3(CCCCC3)C2)nc(C(F)(F)F)n1` (stereo not drawn) [Compound 35, N-methyl-N-((4-(methylsulfonyl)-1,4-oxazepan-2-yl)methyl)-6-(2-azaspiro[5.5]undecan-2-yl)-2-(trifluoromethyl)pyrimidin-4-amine], the minimal effective concentration is under 10000 µM.

Regarding `COC(=O)N1CCCC(CN(C)c2cc(N3CCCC4(CCCCC4)C3)nc(C(F)(F)F)n2)C1` (stereo not drawn) [Compound 36, methyl 3-(((6-(2-azaspiro[5.5]undecan-2-yl)-2-(trifluoromethyl)pyrimidin-4-yl)(methyl)amino)methyl)piperidine-1-carboxylate], the minimal effective concentration is over 100000 µM.

Regarding `CS(=O)(=O)N1CCOC(CN(Cc2ccccc2)c2cc(N3CCCC4(CCCCC4)C3)nc(C(F)(F)F)n2)C1` (stereo not drawn) [Compound 37, N-benzyl-N-((4-(methylsulfonyl)morpholin-2-yl)methyl)-6-(2-azaspiro[5.5]undecan-2-yl)-2-(trifluoromethyl)pyrimidin-4-amine], the minimal effective concentration was over 100000 µM.

`CCN(CC1CN(S(C)(=O)=O)CCO1)c1cc(N2CCCC3(CCCCC3)C2)nc(C(F)(F)F)n1` (stereo not drawn) [Compound 38, N-ethyl-N-((4-(methylsulfonyl)morpholin-2-yl)methyl)-6-(2-azaspiro[5.5]undecan-2-yl)-2-(trifluoromethyl)pyrimidin-4-amine]: the minimal effective concentration is under 30000 µM.

In the case of `CN(C)CCN(CC1CN(S(C)(=O)=O)CCO1)c1cc(N2CCCC3(CCCCC3)C2)nc(C(F)(F)F)n1` (stereo not drawn) [Compound 39, N1-(6-(2-azaspiro[5.5]undecan-2-yl)-2-(trifluoromethyl)pyrimidin-4-yl)-N2,N2-dimethyl-N1-((4-(methylsulfonyl)morpholin-2-yl)methyl)ethane-1,2-diamine], the minimal effective concentration is under 10000 µM.

As for `CN(CC1CN(S(C)(=O)=O)CCO1)c1cc(N2CCCC3(CCC(F)(F)CC3)C2)nc(C(F)(F)F)n1` (stereo not drawn) [Compound 40, 6-(9,9-difluoro-2-azaspiro[5.5]undecan-2-yl)-N-methyl-N-((4-(methylsulfonyl)morpholin-2-yl)methyl)-2-(trifluoromethyl)pyrimidin-4-amine], the minimal effective concentration was under 30000 µM.

Take `CN(CC1CN(S(C)(=O)=O)CCC1(F)F)c1cc(N2CCCC3(CCCCC3)C2)nc(C(F)(F)F)n1` (stereo not drawn) [Compound 41, N-((4,4-difluoro-1-(methylsulfonyl)piperidin-3-yl)methyl)-N-methyl-6-(2-azaspiro[5.5]undecan-2-yl)-2-(trifluoromethyl)pyrimidin-4-amine]: the minimal effective concentration was under 30000 µM.

For the compound `CN(CC1CN(S(C)(=O)=O)CCS1(=O)=O)c1cc(N2CCCC3(CCCCC3)C2)nc(C(F)(F)F)n1` (stereo not drawn) [Compound 42, 2-(((6-(2-azaspiro[5.5]undecan-2-yl)-2-(trifluoromethyl)pyrimidin-4-yl)(methyl)amino)methyl)-4-(methylsulfonyl)thiomorpholine 1,1-dioxide], the minimal effective concentration is over 100000 µM.

As for `CN(CC1CN(S(C)(=O)=O)CCS1)c1cc(N2CCCC3(CCCCC3)C2)nc(C(F)(F)F)n1` (stereo not drawn) [Compound 43, N-methyl-N-((4-(methylsulfonyl)thiomorpholin-2-yl)methyl)-6-(2-azaspiro[5.5]undecan-2-yl)-2-(trifluoromethyl)pyrimidin-4-amine], the minimal effective concentration was over 100000 µM.

With `CN(CCC1CN(S(C)(=O)=O)CCO1)c1cc(N2CCCC3(CCCCC3)C2)nc(C(F)(F)F)n1` (stereo not drawn) [Compound 44, N-methyl-N-(2-(4-(methylsulfonyl)morpholin-2-yl)ethyl)-6-(2-azaspiro[5.5]undecan-2-yl)-2-(trifluoromethyl)pyrimidin-4-amine], the minimal effective concentration is over 100000 µM.
